Experimental data from patent publication US11471528B2, “Methods for using extracellular adenosine inhibitors and adenosine receptor inhibitors to enhance immune response and inflammation” (The Government of the United States of America as …, priority 2001, dated 2022).

Tests used:
[1] = tested on: IkB; assay: IkB phosphorylation in macrophages after CpG (Western blot); assay type: in vivo; conditions: C57BL/6 mice, 5 nMol CpG i.v., CGS21680 2 mg/kg, macrophages after 20 minutes
Method: After 20 minutes, macrophages were isolated as described above, and subjected to Western blot analysis using Ab that recognize IkB and Ab can distinguish the phosphorylated form of IkB (IkB-P).

[2] = tested on: activated macrophages and T cells; assay: Secretion of IL-12 and IFN-γ by activated macrophages and T cells in vitro (ELISA); assay type: cell-based; conditions: FIG. 1B
[3] = tested on: anti-TNP-specific immunoglobulins; assay: TNP-KLH vaccination, serum anti-TNP-specific immunoglobulins (ELISA); assay type: in vivo, mice; conditions: for IgG2: day 7, co-injected with TNP-KLH; for serum levels of anti-TNP-specific IgG1: seven days, versus control
Method: The antigen was prepared for injection as follows. DNP-KLH (1.0 mg/ml, Biosearch Technologies, Inc. catalog no. T-5060-5) was prepared in PBS (e.g. dissolve 4.0 mg of purified DNP-KLH in PBS and raise volume to 4.0 ml). Complete Freund's Adjuvant (2.0 ml, CFA; Sigma F-5881) was vortexed and mixed with 2.0 ml of the TNP-KLH solution at 4° C. The CFA/KLH mixture was drawn into a 3-ml glass syringe with a 19-gauge needle. The syringe was attached to a double-ended locking hub connector or a plastic 3-way stopcock. An empty 2-ml glass syringe was attached to the other end and the mixture forced back and forth from one end to the other repeatedly. When the mixture was white and homogeneous, the connector or stopcock was disconnected, a 25 gauge needle attached, and tested for emulsion by placing a drop on the surface of 50 ml of cold water in a 100-ml beaker. The drop should hold together; if not, repeat mixing. […] Samples of blood were obtained by retro-orbital bleeding at 7, 14, and 21 days after TNP-KLH and theophylline injection. Serum levels of anti-TNP-specific IgG1, IgG2a, IgG2b, IgG3, and IgM were estimated using an ELISA kit (Sigma) according to the manufacturer's instructions.

[4] = tested on: B16 melanoma cells; assay: B16 melanoma tumor growth; assay type: in vivo, mice; conditions: daily i.p., ZM241385 0.2 mg/mouse, caffeine 0.4 mg/mouse, start 28 days after tumor cells; FIG. 14
Source text: […] (immunocompromised nude mice; or immunocompetent C57BL/6 mice) were inoculated subcutaneously with B16 melanoma cells (American Type Culture Collection, Manassas, Va.), or B16-H2-Kd transfected tumor cells (increases the immunogenicity of the cells) on day zero to induce the formation of melanomas. The treatment with adenosine receptor antagonists started 28 days after injection of tumor cells, when the tumor reached 7-9 mm in diameter.
[…]. The delay in tumor growth was greater in immunocompetent C57BL/6 mice, and less so in immunocompromised nude mice. However, as the tumor increases in size, both antagonists slow down tumor growth even in immunocompromised animals. […] In addition, adenosine receptor antagonists appear to improve both anti-tumor immunity and preventing or decreasing angiogenesis.

[5] = tested on: NF-kB-regulated pro-inflammatory cytokines (TNFα, IL-12p40); assay: Cytokine mRNA in spleen of CpG-activated mice (RNase protection assay); assay type: in vivo; conditions: C57BL/6 mice, 10 mg/kg i.p. 15 minutes before CpG, FIGS. 8A and 8B
Method: Mutant (A2aR^−/−) or wild-type mice were injected (i.p.) with 20 nmol CpG oligonucleotide (5′-T*C*[…]*A*T*G*C*T-3′, asterisk means phosphorothioate. SEQ ID NO. 1). This toll-receptor activating CpG DNA preparation stimulates the immune system. After one hour, mRNA was extracted from spleenocytes and analyzed for cytokine gene expression using an RNase protection assay with commercial templates (mCK-2b and mCK-3b, Pharmingen, San Diego, Calif.).

[6] = tested on: CMS4 tumor cells; assay: CMS4 lung tumors with antigen-specific CTL immunotherapy; assay type: in vivo; conditions: BALB/c mice, CMS4 i.v., CTL on day 10; ZM241385 10 mg/kg/day i.p. or caffeine 0.1% w/v in drinking water; FIGS. 12A-C
Source text: BALB/c mice were inoculated i.v. with CMS4 tumor cells (Methylcholanthrene-induced sarcoma, 2.5×10^5 cells) on day zero to induce the formation of lung tumors. […] The lung tumors were subsequently examined on days 17, day 18 and day 24, by sacrificing the mice and evaluating their lungs for the number and size of metastasis by visual inspection.

[7] = co-injected with TNP-KLH, about 1 mg/kg

CCNC(=O)[C@H]1O[C@@H](n2cnc3c(N)nc(NCCc4ccc(CCC(=O)O)cc4)nc32)[C@H](O)[C@@H]1O [CGS21680]
phosphorylation of IkB [1]: decreased or inhibited | secretion of IFN-γ [2]: inhibited secretion | secretion of IL-12 [2]: inhibited secretion

O=C(Cc1ccccc1)Nc1nc2ccc(Cl)cc2c2nc(-c3ccco3)nn12 [MRS1220]
IgG2 [3]: improved | serum levels of anti-TNP-specific IgG1 [3, 7]: markedly increased

Nc1nc(NCCc2ccc(O)cc2)nc2nc(-c3ccco3)nn12 [ZM241385]
tumor growth [4]: tumor retardation that became significant after 3-7 days of treatment | IgG2 [3]: improved | serum levels of anti-TNP-specific IgG1 [3, 7]: markedly increased | mRNA expression of NF-kB-regulated pro-inflammatory cytokines [5]: higher expression of NF-kB-regulated pro-inflammatory cytokines | number of metastatic nodules in the lung [6]: decrease in the number of metastatic nodules

Cn1c(=O)c2[nH]cnc2n(C)c1=O [theophylline]
serum levels of anti-TNP-specific IgG1 ([3]; co-injected i.p. with TNP-KLH, FIG. 15): markedly increased | serum levels of anti-TNP-specific IgG1 ([3]; co-injected subcutaneously with TNP-KLH): improvement of antibody production | serum levels of anti-TNP-specific IgG1 ([3]; co-injected subcutaneously with TNP-KLH, listed as theophyllin): markedly increased
